Measured values from US9834518B2, “Compounds for inhibiting cell proliferation in EGFR-driven cancers” (ARIAD Pharmaceuticals, Inc., priority 2011, dated 2017).

Experiments:
[1] = target: human EGFR (native sequence) (Homo sapiens, UniProt P00533); assay: Kinase inhibition, human EGFR (native sequence); format: biochemical; conditions: 10 μM ATP; 10 pt curves, 3 μM top concentration (singlicates)
Protocol: (§1) Kinase inhibitory activity of the compounds was measured against human EGFR (native sequence) and against EGFR bearing the L858R mution and the L858R/T790M double mutation (EGFR, L858R, and L858R/T790M, respectively in Table 1). Additional assays can be conducted with EGFR deletion mutants such as delE746-A750 with or without the additional T790M mutation. Assay conditions included 10 pt curves with 3 μM top concentration (singlicates) and 10 μM ATP.

[2] = target: EGFR bearing the L858R mution (Homo sapiens, UniProt P00533, L858R); assay: Kinase inhibition, EGFR L858R; format: biochemical; conditions: 10 μM ATP; 10 pt curves, 3 μM top concentration (singlicates)
Protocol: as §1

[3] = target: EGFR bearing the L858R/T790M double mutation (Homo sapiens, UniProt P00533, L858R/T790M); assay: Kinase inhibition, EGFR L858R/T790M; format: biochemical; conditions: 10 μM ATP; 10 pt curves, 3 μM top concentration (singlicates)
Protocol: as §1

BAF3 PARENTAL = assay: Cell proliferation (MTT), BAF3 parental; format: cell-based; conditions: Mus musculus
Protocol: (§2) We also assessed the antiproliferative activity of compounds of Formula (I) against BaF3 cells expressing the target EGFR mutations or control (i.e., cell lines expressing wildtype EGFR). Assays were conducted using MTT.

[4] = target: BAF3 EGFR DEL T790M PURO POOL (Homo sapiens, UniProt P00533, DEL746-750/T790M, cells depend on it); assay: Cell proliferation (MTT), BAF3 EGFR DEL T790M; format: cell-based
Protocol: as §2

[5] = system: BAF3 EGFR L858R-T790M PURO POOL; assay: Cell proliferation (MTT), BAF3 EGFR L858R-T790M; format: cell-based; conditions: Ba/F3 EGFR
Protocol: as §2

Sequence of human EGFR (native sequence) (P00533 25-1210): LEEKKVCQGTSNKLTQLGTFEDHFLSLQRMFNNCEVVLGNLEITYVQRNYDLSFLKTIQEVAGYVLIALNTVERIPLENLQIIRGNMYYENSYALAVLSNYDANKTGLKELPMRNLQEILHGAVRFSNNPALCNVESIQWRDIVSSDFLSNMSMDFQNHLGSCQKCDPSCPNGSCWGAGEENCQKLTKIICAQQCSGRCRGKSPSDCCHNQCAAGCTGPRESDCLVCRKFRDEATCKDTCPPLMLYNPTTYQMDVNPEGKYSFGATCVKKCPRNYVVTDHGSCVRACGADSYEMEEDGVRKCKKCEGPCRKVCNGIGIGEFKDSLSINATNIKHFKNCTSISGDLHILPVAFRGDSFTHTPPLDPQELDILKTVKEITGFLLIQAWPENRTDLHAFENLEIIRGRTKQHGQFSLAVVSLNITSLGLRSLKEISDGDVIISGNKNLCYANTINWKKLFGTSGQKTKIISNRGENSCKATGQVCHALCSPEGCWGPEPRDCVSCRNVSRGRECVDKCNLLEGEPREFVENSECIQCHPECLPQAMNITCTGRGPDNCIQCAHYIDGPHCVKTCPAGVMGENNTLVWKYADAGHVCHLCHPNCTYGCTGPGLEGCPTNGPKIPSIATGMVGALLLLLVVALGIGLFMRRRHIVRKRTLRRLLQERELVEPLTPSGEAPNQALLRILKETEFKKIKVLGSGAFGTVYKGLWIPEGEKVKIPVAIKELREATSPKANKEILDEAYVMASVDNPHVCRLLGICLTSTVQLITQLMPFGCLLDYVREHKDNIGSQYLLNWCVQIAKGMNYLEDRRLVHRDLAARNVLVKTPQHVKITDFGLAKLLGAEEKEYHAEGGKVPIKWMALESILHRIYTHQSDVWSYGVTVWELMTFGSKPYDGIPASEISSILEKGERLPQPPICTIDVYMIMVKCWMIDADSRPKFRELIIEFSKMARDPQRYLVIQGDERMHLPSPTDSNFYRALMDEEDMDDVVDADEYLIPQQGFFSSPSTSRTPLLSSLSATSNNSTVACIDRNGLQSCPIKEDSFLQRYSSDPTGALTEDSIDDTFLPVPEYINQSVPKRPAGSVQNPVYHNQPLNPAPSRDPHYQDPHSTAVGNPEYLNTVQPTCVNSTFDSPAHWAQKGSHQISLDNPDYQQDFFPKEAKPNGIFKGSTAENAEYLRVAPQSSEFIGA
Sequence of EGFR bearing the L858R/T790M double mutation (P00533 25-1210 T790M/L858R): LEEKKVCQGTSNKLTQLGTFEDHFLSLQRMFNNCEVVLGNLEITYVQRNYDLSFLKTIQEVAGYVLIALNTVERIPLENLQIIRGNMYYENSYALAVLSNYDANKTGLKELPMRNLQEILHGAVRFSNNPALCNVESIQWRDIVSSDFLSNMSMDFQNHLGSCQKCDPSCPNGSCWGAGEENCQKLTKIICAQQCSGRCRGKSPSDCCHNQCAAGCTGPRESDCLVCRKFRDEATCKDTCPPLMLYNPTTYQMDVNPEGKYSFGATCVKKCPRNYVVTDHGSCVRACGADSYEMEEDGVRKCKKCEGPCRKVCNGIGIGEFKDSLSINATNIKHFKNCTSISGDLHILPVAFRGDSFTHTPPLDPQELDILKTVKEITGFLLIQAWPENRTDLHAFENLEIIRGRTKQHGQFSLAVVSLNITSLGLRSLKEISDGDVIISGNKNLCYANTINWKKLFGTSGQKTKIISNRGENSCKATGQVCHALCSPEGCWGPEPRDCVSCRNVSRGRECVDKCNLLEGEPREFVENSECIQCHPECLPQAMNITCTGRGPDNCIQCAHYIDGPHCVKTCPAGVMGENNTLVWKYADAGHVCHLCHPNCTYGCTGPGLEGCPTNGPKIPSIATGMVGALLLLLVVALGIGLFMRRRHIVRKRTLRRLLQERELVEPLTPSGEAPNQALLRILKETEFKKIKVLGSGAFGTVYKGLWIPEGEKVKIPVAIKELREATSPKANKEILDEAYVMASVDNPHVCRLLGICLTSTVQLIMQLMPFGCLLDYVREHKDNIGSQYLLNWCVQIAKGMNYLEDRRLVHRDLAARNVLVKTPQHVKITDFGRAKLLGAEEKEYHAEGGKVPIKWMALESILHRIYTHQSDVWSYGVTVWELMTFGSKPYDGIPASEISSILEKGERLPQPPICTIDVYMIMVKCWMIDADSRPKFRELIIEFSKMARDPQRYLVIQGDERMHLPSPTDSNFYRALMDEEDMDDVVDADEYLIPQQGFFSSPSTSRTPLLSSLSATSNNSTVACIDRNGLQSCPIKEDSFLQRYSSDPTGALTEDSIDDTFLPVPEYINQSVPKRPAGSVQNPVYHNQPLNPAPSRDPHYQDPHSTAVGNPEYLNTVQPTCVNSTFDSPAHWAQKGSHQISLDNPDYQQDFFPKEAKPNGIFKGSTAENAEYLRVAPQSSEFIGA
Sequence of BAF3 EGFR DEL T790M PURO POOL (P00533 with tags, fused parts or gaps DEL746-750/T790M): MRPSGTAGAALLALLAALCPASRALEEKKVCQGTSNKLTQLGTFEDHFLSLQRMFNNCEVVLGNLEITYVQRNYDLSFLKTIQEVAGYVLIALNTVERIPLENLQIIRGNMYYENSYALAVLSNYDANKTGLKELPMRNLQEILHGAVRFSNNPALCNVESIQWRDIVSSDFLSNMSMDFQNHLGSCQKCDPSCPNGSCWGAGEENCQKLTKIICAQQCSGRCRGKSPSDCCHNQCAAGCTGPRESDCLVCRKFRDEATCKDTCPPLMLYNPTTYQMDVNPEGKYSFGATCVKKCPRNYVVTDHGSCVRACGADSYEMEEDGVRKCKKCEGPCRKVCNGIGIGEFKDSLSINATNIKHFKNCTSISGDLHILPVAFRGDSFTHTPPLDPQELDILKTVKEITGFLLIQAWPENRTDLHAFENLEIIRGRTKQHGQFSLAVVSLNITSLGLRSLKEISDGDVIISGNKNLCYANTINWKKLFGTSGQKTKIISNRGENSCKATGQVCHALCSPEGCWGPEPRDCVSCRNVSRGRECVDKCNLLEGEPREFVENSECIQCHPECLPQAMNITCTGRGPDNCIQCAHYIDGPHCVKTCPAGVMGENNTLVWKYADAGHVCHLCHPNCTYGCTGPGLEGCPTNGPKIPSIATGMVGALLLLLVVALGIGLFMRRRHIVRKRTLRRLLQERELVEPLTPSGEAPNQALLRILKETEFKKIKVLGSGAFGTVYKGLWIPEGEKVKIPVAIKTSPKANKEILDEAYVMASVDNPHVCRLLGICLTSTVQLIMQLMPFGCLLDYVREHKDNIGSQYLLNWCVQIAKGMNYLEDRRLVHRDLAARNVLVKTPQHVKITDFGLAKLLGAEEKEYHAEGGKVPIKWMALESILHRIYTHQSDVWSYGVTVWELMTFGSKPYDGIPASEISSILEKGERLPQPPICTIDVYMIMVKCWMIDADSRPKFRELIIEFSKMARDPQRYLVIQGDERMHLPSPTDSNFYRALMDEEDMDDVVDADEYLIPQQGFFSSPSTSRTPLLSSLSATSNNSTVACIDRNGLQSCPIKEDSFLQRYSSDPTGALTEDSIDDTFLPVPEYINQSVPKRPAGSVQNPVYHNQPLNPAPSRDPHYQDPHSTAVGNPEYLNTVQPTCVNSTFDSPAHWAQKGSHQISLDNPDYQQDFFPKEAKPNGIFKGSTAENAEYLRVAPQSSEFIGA
Sequence of EGFR bearing the L858R mution (P00533 25-1210 L858R): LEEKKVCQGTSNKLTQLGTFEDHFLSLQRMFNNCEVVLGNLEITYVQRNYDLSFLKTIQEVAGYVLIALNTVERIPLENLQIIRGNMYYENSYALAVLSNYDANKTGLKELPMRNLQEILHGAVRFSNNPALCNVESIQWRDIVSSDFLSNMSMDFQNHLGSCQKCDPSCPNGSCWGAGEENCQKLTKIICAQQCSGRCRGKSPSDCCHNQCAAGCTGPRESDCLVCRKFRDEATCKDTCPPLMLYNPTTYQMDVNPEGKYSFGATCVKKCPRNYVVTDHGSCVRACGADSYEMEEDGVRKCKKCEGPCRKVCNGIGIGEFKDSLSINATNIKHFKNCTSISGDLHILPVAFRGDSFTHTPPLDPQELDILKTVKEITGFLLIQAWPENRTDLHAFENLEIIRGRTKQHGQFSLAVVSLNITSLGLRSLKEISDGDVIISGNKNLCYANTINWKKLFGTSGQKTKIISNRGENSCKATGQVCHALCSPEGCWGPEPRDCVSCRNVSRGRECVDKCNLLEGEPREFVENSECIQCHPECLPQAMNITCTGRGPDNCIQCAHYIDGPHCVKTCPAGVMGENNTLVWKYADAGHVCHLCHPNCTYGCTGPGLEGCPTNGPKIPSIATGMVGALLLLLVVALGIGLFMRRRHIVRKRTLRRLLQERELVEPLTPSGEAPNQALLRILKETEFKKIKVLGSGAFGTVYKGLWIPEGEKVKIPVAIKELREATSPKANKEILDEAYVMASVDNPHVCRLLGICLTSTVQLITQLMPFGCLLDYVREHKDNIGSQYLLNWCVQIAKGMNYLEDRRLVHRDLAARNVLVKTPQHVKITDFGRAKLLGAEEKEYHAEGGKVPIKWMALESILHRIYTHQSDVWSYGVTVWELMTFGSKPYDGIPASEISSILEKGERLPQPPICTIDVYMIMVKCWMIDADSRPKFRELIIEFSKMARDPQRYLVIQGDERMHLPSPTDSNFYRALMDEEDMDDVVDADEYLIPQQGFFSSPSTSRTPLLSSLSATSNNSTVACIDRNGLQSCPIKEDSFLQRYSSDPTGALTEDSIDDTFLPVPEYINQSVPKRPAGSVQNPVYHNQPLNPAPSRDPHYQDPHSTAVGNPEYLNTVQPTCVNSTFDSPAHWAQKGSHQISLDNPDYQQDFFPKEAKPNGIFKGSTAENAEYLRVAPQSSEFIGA

SMILES | IC50 [1] [nM] | IC50 [2] [nM] | IC50 [3] [nM] | IC50 [4] [nM] | IC50 [5] [nM] | IC50 (BAF3 PARENTAL) [nM]
C=CC(=O)Nc1ccc(OC)c(Nc2ncc(Br)c(Nc3ccccc3P(C)(C)=O)n2)c1 [Example 12, N-(3-((5-bromo-4-((2-(dimethylphosphoryl)phenyl)amino)pyrimidin-2-yl)amino)-4-methoxyphenyl)acrylamide] | < 51 | < 51 | < 51 | < 51 | < 51 | ≥ 250
C=CC(=O)Nc1ccc(OC)c(Nc2nccc(Nc3ccccc3P(C)(C)=O)n2)c1 [Example 13, N-(3-((4-((2-(dimethylphosphoryl)phenyl)amino)pyrimidin-2-yl)amino)-4-methoxyphenyl)acrylamide] | ≥ 250 | 51 to 100 | < 51 | 101 to 250 | ≥ 250 | ≥ 250
C=CC(=O)Nc1ccc(OC)c(Nc2ncc(Cl)c(Nc3cccc(C)c3P(C)(C)=O)n2)c1 [Example 14, N-(3-((5-chloro-4-((2-(dimethylphosphoryl)-3-methylphenyl)amino)pyrimidin-2-yl)amino)-4-methoxyphenyl)acrylamide] | 51 to 100 | < 51 | < 51 | < 51 | < 51 | ≥ 250
C=CC(=O)Nc1ccc(OC)c(Nc2ncc(Cl)c(Nc3ccccc3P(=O)(CC)CC)n2)c1 [Example 15, N-(3-((5-chloro-4-((2-(diethylphosphoryl)phenyl)amino)pyrimidin-2-yl)amino)-4-methoxyphenyl)acrylamide] | < 51 | < 51 | < 51 | < 51 | < 51 | ≥ 250
C=C(CN(C)C)C(=O)Nc1ccc(OC)c(Nc2ncc(Cl)c(Nc3ccccc3P(C)(C)=O)n2)c1 [Example 17, N-(3-((5-chloro-4-((2-(dimethylphosphoryl)phenyl)amino)pyrimidin-2-yl)amino)-4-methoxyphenyl)-2-((dimethylamino)methyl)acrylamide] | < 51 | < 51 | < 51 | < 51 | < 51 | ≥ 250
C=CC(=O)Nc1cc(Nc2ncc(Cl)c(Nc3ccccc3P(C)(C)=O)n2)c(OC)cc1N1CCN(C)CC1 [Example 18, N-(5-((5-chloro-4-((2-(dimethylphosphoryl)phenyl)amino)pyrimidin-2-yl)amino)-4-methoxy-2-(4-methylpiperazin-1-yl)phenyl)acrylamide] | 51 to 100 | < 51 | < 51 | < 51 | 51 to 100 | ≥ 250
C=CC(=O)Nc1cc(Nc2ncc(Cl)c(Nc3ccccc3P(C)(C)=O)n2)c(OC)cc1OCCN(C)C [Example 19, N-(5-((5-chloro-4-((2-(dimethylphosphoryl)phenyl)amino)pyrimidin-2-yl)amino)-2-(2-(dimethylamino)ethoxy)-4-methoxyphenyl)acrylamide] | < 51 | < 51 | < 51 | < 51 | < 51 | ≥ 250
C=CC(=O)Nc1cc(Nc2ncc(Cl)c(Nc3ccccc3P(C)(C)=O)n2)c(OC)cc1OC [Example 20, N-(5-((5-chloro-4-((2-(dimethylphosphoryl)phenyl)amino)pyrimidin-2-yl)amino)-2,4-dimethoxyphenyl)acrylamide] | ≥ 250 | < 51 | < 51 | < 51 | 101 to 250 | ≥ 250
C=CC(=O)N(CCCN(C)C)c1ccc(OC)c(Nc2ncc(Cl)c(Nc3ccccc3P(C)(C)=O)n2)c1 [Example 21, N-(3-((5-chloro-4-((2-(dimethylphosphoryl)phenyl)amino)pyrimidin-2-yl)amino)-4-methoxyphenyl)-N-(3-(dimethylamino)propyl)acrylamide] | ≥ 250 | 101 to 250 | 51 to 100 | 101 to 250 | ≥ 250 | ≥ 250
C=CC(=O)Nc1cc(Nc2ncc(Cl)c(Nc3ccccc3P(C)(C)=O)n2)c(OC)cc1F [Example 22] | < 51 | < 51 | < 51 | < 51 | < 51 | ≥ 250
C=CC(=O)Nc1cc(Nc2ncc(Cl)c(Nc3ccccc3P(C)(C)=O)n2)c(OC)cc1OC1CCOC1 (stereo not drawn) [Example 24, N-(5-((5-chloro-4-((2-(dimethylphosphoryl)phenyl)amino)pyrimidin-2-yl)amino)-4-methoxy-2-((tetrahydrofuran-3-yl)oxy)phenyl)acrylamide] | ≥ 250 | < 51 | < 51 | ≥ 250 | 101 to 250 | ≥ 250

Second part, led by results:

IC50 [1] [nM] | IC50 [2] [nM] | IC50 [3] [nM] | IC50 [4] [nM] | IC50 [5] [nM] | SMILES | IC50 (BAF3 PARENTAL) [nM]
≥ 250 | < 51 | < 51 | < 51 | 51 to 100 | C=CC(=O)Nc1cc(Nc2ncc(Cl)c(Nc3ccccc3P(C)(C)=O)n2)c(OC)cc1OCCOC [Example 25, N-(5-((5-chloro-4-((2-(dimethylphosphoryl)phenyl)amino)pyrimidin-2-yl)amino)-4-methoxy-2-(2-methoxyethoxy)phenyl)acrylamide] | ≥ 250
≥ 250 | 101 to 250 | 101 to 250 | < 51 | 51 to 100 | C=CC(=O)N(C(=O)C=C)c1ccc(OC)c(Nc2ncc(Cl)c(Nc3ccccc3P(C)(C)=O)n2)c1 [Example 26, N-acryloyl-N-(3-((5-chloro-4-((2-(dimethylphosphoryl)phenyl)amino)pyrimidin-2-yl)amino)-4-methoxyphenyl)acrylamide] | ≥ 250
< 51 | < 51 | < 51 | < 51 | < 51 | C=CC(=O)Nc1cc(Nc2ncc(Cl)c(Nc3ccccc3P(C)(C)=O)n2)c(OC)cc1OC(COC)CN(CC)CC (stereo not drawn) [Example 27] | ≥ 250
< 51 | < 51 | < 51 | < 51 | < 51 | C=CC(=O)Nc1cc(Nc2ncc(Cl)c(Nc3ccccc3P(C)(C)=O)n2)c(OC)cc1OC(COC)CN(C)C (stereo not drawn) [Example 28, N-(5-((5-chloro-4-((2-(dimethylphosphoryl)phenyl)amino)pyrimidin-2-yl)amino)-2-((1-(dimethylamino)-3-methoxypropan-2-yl)oxy)-4-methoxyphenyl)acrylamide] | ≥ 250
≥ 250 | < 51 | < 51 | < 51 | 51 to 100 | C=CC(=O)Nc1cc(Nc2ncc(Cl)c(Nc3ccccc3P(C)(C)=O)n2)c(OC)cc1N1CCOCC1 [Example 32, N-(5-((5-chloro-4-((2-(dimethylphosphoryl)phenyl)amino)pyrimidin-2-yl)amino)-4-methoxy-2-morpholinophenyl)acrylamide] | ≥ 250
< 51 | < 51 | < 51 | < 51 | < 51 | C=CC(=O)Nc1cc(Nc2ncc(Cl)c(Nc3ccccc3P(C)(C)=O)n2)c(OC)cc1N(C)CCN(CC)CC [Example 33, N-(5-((5-chloro-4-((2-(dimethylphosphoryl)phenyl)amino)pyrimidin-2-yl)amino)-2-((2-(diethylamino)ethyl)(methyl)amino)-4-methoxyphenyl)acrylamide] | ≥ 250
≥ 250 | 101 to 250 | 51 to 100 | < 51 | 101 to 250 | C=CC(=O)Nc1cc(Nc2ncc(Cl)c(Nc3ccccc3P(C)(C)=O)n2)c(OC)cc1N(C)CCCN(C)C [Example 34, N-(5-((5-chloro-4-((2-(dimethylphosphoryl)phenyl)amino)pyrimidin-2-yl)amino)-2-((3-(dimethylamino)propyl)(methyl)amino)-4-methoxyphenyl)acrylamide] | ≥ 250
< 51 | < 51 | < 51 | < 51 | < 51 | C=C(CN(C(C)C)C(C)C)C(=O)Nc1ccc(OC)c(Nc2ncc(Cl)c(Nc3ccccc3P(C)(C)=O)n2)c1 [Example 35, N-(3-((5-chloro-4-((2-(dimethylphosphoryl)phenyl)amino)pyrimidin-2-yl)amino)-4-methoxyphenyl)-2-((diisopropylamino)methyl)acrylamide] | ≥ 250
< 51 | < 51 | < 51 | < 51 | < 51 | C=CC(=O)Nc1cc(Nc2ncc(Cl)c(Nc3ccccc3P(C)(C)=O)n2)c(OC)cc1OCC(COC)N(C)C (stereo not drawn) [Example 37, N-(5-((5-chloro-4-((2-(dimethylphosphoryl)phenyl)amino)pyrimidin-2-yl)amino)-2-(2-(dimethylamino)-3-methoxypropoxy)-4-methoxyphenyl)acrylamide] | ≥ 250
< 51 | < 51 | < 51 | < 51 | < 51 | C=CC(=O)Nc1cc(Nc2ncc(Cl)c(Nc3ccccc3P(C)(C)=O)n2)c(OC)cc1N(C)CCN(C)CCOC [Example 38, N-(5-((5-chloro-4-((2-(dimethylphosphoryl)phenyl)amino)pyrimidin-2-yl)amino)-4-methoxy-2-((2-((2-methoxyethyl)(methyl)amino)ethyl)(methyl)amino)phenyl)acrylamide] | ≥ 250
